Measured values: US20120004230A1, “IMIDAZOLE DERIVATIVES” (priority 2006, published 2012)

target: T1, TAAR1 (Mus musculus, UniProt Q923Y8); experiment: Radioligand binding to TAAR1, membranes of stably transfected HEK293 cells; conditions: not given
T1 construct: expressed in transfected cells; host or cells: HEK293 cells (ATCC # CRL-1573), stably transfected with a pIRESneo2 expression plasmid; membranes prepared from them
Procedure: For the construction of expression plasmids, the coding sequences of human, rat and mouse TAAR 1 were amplified from genomic DNA essentially as described by Lindemann et al. (2005) Genomics 85, 372-385. The Expand High Fidelity PCR System (Roche Diagnostics) was used with 1.5 mM Mg^2F and purified PCR products were cloned into pCR2.1-TOPO cloning vector (Invitrogen) following the instructions of the manufacturer. PCR products were subcloned into the pIRESneo2 vector (BD Clontech, Palo Alto, Calif.), and expression vectors were sequence verified before introduction in cell lines.
HEK293 cells (ATCC # CRL-1573) were cultured essentially as described in Lindemann et al. (2005) Genomics 85, 372-385. For the generation of stably transfected cell lines, HEK293 cells were transfected with the pIRESneo2 expression plasmids containing the TAAR coding sequences (described above) with Lipofectamine 2000 (Invitrogen) according to the instructions of the manufacturer, and 24 hours post transfection, the culture medium was supplemented with 1 mg/ml G418 (Sigma, Buchs, Switzerland). After a culture period of about 10 days, clones were isolated, expanded and tested for responsiveness to trace amines (all compounds purchased from Sigma) with the cAMP Biotrak Enzyme immunoassay (EIA) System (Amersham) following the non-acetylation EIA procedure provided by the manufacturer.
Cells at confluence were rinsed with ice-cold phosphate buffered saline without Ca^2+ and Mg^2+ containing 10 mM EDTA and pelleted by centrifugation at 1000 rpm for 5 minutes at 4° C. The pellet was then washed twice with ice-cold phosphate buffered saline and the cell pellet was frozen immediately by immersion in liquid nitrogen and stored until use at −80° C. The cell pellet was then suspended in 20 ml HEPES-NaOH (20 mM), pH 7.4 containing 10 mM EDTA, and homogenized with a Polytron (PT 3000, Kinematica) at 10,000 rpm for 10 seconds. The homogenate was centrifuged at 48,000×g for 30 minutes at 4° C. and the pellet resuspended in 20 ml HEPES-NaOH (20 mM), pH 7.4 containing 0.1 mM EDTA (buffer A), and homogenized with a Polytron at 10,000 rpm for 10 seconds. The homogenate was then centrifuged at 48,000×g for 30 minutes at 4° C. and the pellet resuspended in 20 ml buffer A, and homogenized with a Polytron at 10,000 rpm for 10 seconds. Protein concentration was determined by the method of Pierce (Rockford, Ill.). The homogenate was then centrifuged at 48,000×g for 10 minutes at 4° C., resuspended in HEPES-NaOH (20 mM), pH 7.0 including MgC12 (10 mM) and CaCl2 ([…]) (buffer B) at 200 μg protein per ml and homogenized with a Polytron at 10,000 rpm for 10 seconds.
Binding assay was performed at 4° C. in a final volume of 1 ml, and with an incubation time of 30 minutes. The radioligand [^3H]-rac-2-(1,2,3,4-tetrahydro-1-naphthyl)-2-imidazoline was used at a concentration equal to the calculated Kd value of 60 nM to give a total binding at around 0.1% of the total added radioligand concentration, and a specific binding which represented approximately 70-80% of the total binding. Non-specific binding was defined as the amount of [^3H]-rac-2-(1,2,3,4-tetrahydro-1-naphthyl)-2-imidazoline bound in the presence of the appropriate unlabelled ligand (10 μM). Competing ligands were tested in a wide range of concentrations ([…]). […] Each experiment was performed in duplicate. All incubations were terminated by rapid filtration through UniFilter-96 plates (Packard Instrument Company) and glass filter GF/C, pre-soaked for at least 2 hours in polyethylenimine 0.3%, and using a Filtermate 96 Cell Harvester (Packard Instrument Company). The tubes and filters were then washed 3 times with 1 ml aliquots of cold buffer B. Filters were not dried and soaked in Ultima gold (45 μl/well, Packard Instrument Company) and bound radioactivity was counted by a TopCount Microplate Scintillation Counter (Packard Instrument Company).

T1 sequence (Q923Y8 whole entry): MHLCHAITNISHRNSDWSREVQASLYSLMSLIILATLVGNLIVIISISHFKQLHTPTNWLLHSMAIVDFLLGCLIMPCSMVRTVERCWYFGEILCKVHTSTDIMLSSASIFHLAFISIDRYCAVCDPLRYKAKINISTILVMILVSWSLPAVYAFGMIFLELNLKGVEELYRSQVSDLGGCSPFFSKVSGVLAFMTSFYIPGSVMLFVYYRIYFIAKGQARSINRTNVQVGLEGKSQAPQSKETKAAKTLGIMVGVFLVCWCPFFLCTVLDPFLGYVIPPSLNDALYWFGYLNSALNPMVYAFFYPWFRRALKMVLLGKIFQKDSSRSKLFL

| SMILES | Ki [µM] |
| --- | --- |
| Clc1ccc(CCc2cnc[nH]2)cc1 [Example 16, 4-[2-(4-Chloro-phenyl)-ethyl]-1H-imidazole] | 0.0172 |
| FC(F)(F)c1cccc(CCc2cnc[nH]2)c1 [Example 13, 4-[2-(3-Trifluoromethyl-phenyl)-ethyl]-1H-imidazole] | 0.0106 |
| COc1cccc(CCc2cnc[nH]2)c1 [Example 14, 4-[2-(3-Methoxy-phenyl)-ethyl]-1H-imidazole] | 0.0606 |
| COc1ccccc1CCc1cnc[nH]1 [Example 8, 4-[2-(2-Methoxy-phenyl)-ethyl]-1H-imidazole] | 0.0843 |
| Clc1cccc(CCc2cnc[nH]2)c1 [Example 11, 4-[2-(3-Chloro-phenyl)-ethyl]-1H-imidazole] | 0.0025 |
| Fc1cccc(CCc2cnc[nH]2)c1 [Example 12, 4-[2-(3-Fluoro-phenyl)-ethyl]-1H-imidazole] | 0.0097 |
| Clc1cc(Cl)cc(CCc2cnc[nH]2)c1 [Example 17, 4-[2-(3,5-Dichloro-phenyl)-ethyl]-1H-imidazole] | 0.0019 |
| Clc1ccccc1CCc1cnc[nH]1 [Example 5, 4-[2-(2-Chloro-phenyl)-ethyl]-1H-imidazole] | 0.0059 |
| CCC(Cc1cnc[nH]1)c1ccccc1 (stereo not drawn) [Example 1, 4-(2-Phenyl-butyl)-1H-imidazole] | 0.0609 |

same assay, conditions: mouse TAAR1; radioligand [3H]-rac-2-(1,2,3,4-tetrahydro-1-naphthyl)-2-imidazoline at 60 nM; 4° C., 30 minutes; read-out: Ki (μM) mouse

| Ki [µM] | SMILES |
| --- | --- |
| 0.0889 | Fc1cccc(OCc2cnc[nH]2)c1F [Example 35, 4-(2,3-Difluoro-phenoxymethyl)-1H-imidazole] |
| 0.0103 | c1ccc2cc(SCc3c[nH]cn3)ccc2c1 [Example 47, 4-(Naphthalen-2-ylsulfanylmethyl)-1H-imidazole] |
| 0.0227 | Clc1ccc(OCc2cnc[nH]2)cc1Cl [Example 36, 4-(3,4-Dichloro-phenoxymethyl)-1H-imidazole] |
| 0.0684 | c1ncc(COc2ccc3ccoc3c2)[nH]1 [Example 39, 5-(Benzofuran-6-yloxymethyl)-1H-imidazole] |
| 0.0041 | Clc1cccc(SCc2cnc[nH]2)c1Cl [Example 42, 5-(2,3-Dichloro-phenylsulfanylmethyl)-1-imidazole] |
| 0.043 | Clc1cccc(OCc2cnc[nH]2)c1Cl [Example 20, 4-(2,3-Dichloro-phenoxymethyl)-1H-imidazole] |
| 0.0802 | Fc1cc(OCc2cnc[nH]2)ccc1Cl [Example 37, 4-(4-Chloro-3-fluoro-phenoxymethyl)-1H-imidazole] |
| 0.0146 | Cc1[nH]cnc1CSc1ccc(Cl)cc1 [Example 46, 4-(4-Chloro-phenylsulfanylmethyl)-5-methyl-1H-imidazole] |

same assay, conditions: radioligand used at a concentration equal to its calculated Kd; TAAR1 species not given

| SMILES | Kd [nM] |
| --- | --- |
| c1ccc2c(c1)CCCC2C1=NCCN1 (racemic) [[^3H]-rac-2-(1,2,3,4-tetrahydro-1-naphthyl)-2-imidazoline, reference compound] | 60 |
